Data on two molecules can be found in US10426751B2, “Allosteric activators for treatment of phenylketonuria” (MCMASTER UNIVERSITY, priority 2015, dated 2019).

Structures are written as SMILES. Bounds are passed on as bounds.

Experiment [1] has as its target T1, WT-PAH (Homo sapiens, UniProt P00439).
T1 construct: made in house; the paragraph itself says 'eukaryotic cell cultures' (pMAL vector, Martinez laboratory, University of Bergen)
T1 sequence (P00439 1-452): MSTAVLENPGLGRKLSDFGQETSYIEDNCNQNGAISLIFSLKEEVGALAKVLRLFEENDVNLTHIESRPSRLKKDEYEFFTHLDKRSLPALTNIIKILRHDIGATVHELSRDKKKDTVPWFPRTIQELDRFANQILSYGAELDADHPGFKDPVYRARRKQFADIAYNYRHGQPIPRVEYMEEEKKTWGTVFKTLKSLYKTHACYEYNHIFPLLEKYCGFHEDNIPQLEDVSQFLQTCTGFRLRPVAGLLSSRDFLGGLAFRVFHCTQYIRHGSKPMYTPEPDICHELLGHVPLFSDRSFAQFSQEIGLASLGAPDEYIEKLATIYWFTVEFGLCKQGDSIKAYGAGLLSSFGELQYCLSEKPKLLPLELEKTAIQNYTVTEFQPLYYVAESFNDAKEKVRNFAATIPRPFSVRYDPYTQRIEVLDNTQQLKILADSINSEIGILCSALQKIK
The experiment can be described thus: Primary screen (READ): ligand-induced stabilization of PAH activity in 8 M urea, Tyr formation by CE-UV. The format is biochemical. The conditions noted are these: 8 M urea, ligand 20 μM; ligand-free enzyme (7±0.5) %. As to the method: Tetrameric human phenylalanine hydroxylase (PAH) enzyme kinetic assays were performed off-line under standardized conditions prior to quantification of Tyr formation by CE with UV detection. Enzyme assays were performed by first mixing together Phe (1 mM), catalase (100 nM) and PAH (0.25 μM/subunit) in a reaction buffer (20 mM HEPES and 200 mM NaCl, pH 7.0) that were equilibrated at 25° C. for 4 min. Then, ferrous (Fe^2+) ammonium sulfate (100 μM) was added to the solution for 1 min and the reaction was subsequently initiated by addition of BH4 ([…]) with DTT (5 mM) using a total volume of 100 μL. The reaction mixture was then vortexed for 60 s followed by sonication for 2 min prior to centrifugation for 10 s at 4 g and storage in a refrigerator (+4° C.). An aliquot (20 μL) was withdrawn from the quenched enzyme reaction and placed in a micro vial containing Me-Tyr as IS (100 μM) prior to CE analysis. The stability of the quenched enzyme reaction was confirmed by intermittent analysis of PAH activity over 6 h at room temperature, and no significant changes in the Tyr/IS or Phe/Tyr response ratio were measured. Enzymatic reactions were performed for both WT-PAH and two PAH mutants by pre-equilibrating each ligand for 10 min prior to addition of ferrous ion and BH4/DDT as described in enzyme reaction protocol in order to assess for ligand-induced PAH inhibition or activation.
Unlike thermal stability assays that can induce protein aggregation, chemical denaturants are more suitable as perturbants to promote unfolding and enzyme inactivation while solubilizing multimeric proteins. In this context, restoration of enzyme activity upon denaturation (READ) was first introduced to characterize PCs that stabilize yet enhance the activity of a lysosomal enzyme, β-glucocerebrosidase (GCase). Herein, READ was modified, further optimized and validated for primary screening of PCs for the cytosolic enzyme (PAH) using a chemical library containing structurally unique compounds with drug-like activity. For instance, the primary screen was used to measure ligand-induced stabilization of PAH by extrinsic small molecules that impart greater resistance to urea unfolding as compared to ligand-free apo-enzyme conditions. PAH activity was first examined as a function of urea concentration (0 to 8 M) and pre-equilibration time (10 min to 2 hr) in order to determine optimum conditions where residual enzyme activity was largely attenuated below 10% due to protein unfolding. Protein unfolding was performed in triplicate offline with the enzyme reaction buffer (20 mM HEPES and 200 mM NaCl, pH 7.0) using tetrameric human PAH (1 μM and/or 0.1 μM) or mutant PAH (1 μM and/or 0.1 μM) incubated 10 min in 0 M or 8 M urea in the presence or absence of ligand (20 μM). Dose-response studies (0, 2.0 and 20 μM) were subsequently performed in triplicate on screen-positive compounds using re-synthesized ligands in order to further validate initial screen results. In all cases, quenched enzyme reactions were processed as described previously prior to CE analysis. PAH activity measurements based on Tyr formation at 8M urea with the presence or absence of PC were normalized to 0 M urea for each aliquot enzyme reaction to minimize long-term variation, which also enables direct comparison of the ligand-induced stabilization activity under denaturing conditions (8M urea) while confirming inhibition and activation effects for ligands under native conditions (0 M urea).

Experiment [2] has as its target T1, WT-PAH. The experiment can be described thus: Chaperone (refolding) assay: PAH activity after dilution from 6.0 M to 0.5 M GndCl. The format is biochemical. The conditions noted are these: ligand 20 μM. As to the method:
For instance, a recovery of 50% of residual enzyme activity was achieved without ligand when PAH was incubated in 8.0 M urea after its dilution to 0.5 M urea to trigger protein refolding. In order to further reduce enzyme reversibility, the recovery of PAH activity was subsequently assessed when it was incubated using 6.0 M GndCl for 10 min and subsequently diluted to 0.5 M GndCl in the presence or absence of screen-positive ligands (20 μM) in enzyme reaction buffer with PAH activity measurements performed by CE as described previously. […] Two lead compounds and several analogs of SA were subsequently tested using two different mutants of PAH (I65T and R261Q) without chemical denaturants after the two-tiered screening.

The target in experiment [3] is T2, PAH (Mus musculus, UniProt P16331).
T2 construct: inducing a 2-fold enhancement in PAH activity in WT mouse liver; host or cells: liver of WT mice
T2 sequence (P16331 1-453): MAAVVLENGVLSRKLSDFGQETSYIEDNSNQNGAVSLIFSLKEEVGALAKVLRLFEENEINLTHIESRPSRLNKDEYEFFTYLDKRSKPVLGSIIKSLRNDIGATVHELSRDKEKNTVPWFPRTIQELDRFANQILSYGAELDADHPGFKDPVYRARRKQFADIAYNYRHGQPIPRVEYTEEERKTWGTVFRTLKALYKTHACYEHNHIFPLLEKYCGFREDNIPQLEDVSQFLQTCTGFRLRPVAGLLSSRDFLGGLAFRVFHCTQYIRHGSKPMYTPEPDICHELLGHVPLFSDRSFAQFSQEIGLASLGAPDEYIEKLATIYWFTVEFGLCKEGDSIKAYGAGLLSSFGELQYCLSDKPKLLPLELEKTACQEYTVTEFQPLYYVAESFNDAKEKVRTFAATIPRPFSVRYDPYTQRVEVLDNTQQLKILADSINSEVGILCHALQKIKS
Particulars: cited from earlier work.

Experiment [4] has as its target T3, PAH (Homo sapiens, UniProt P00439).
T3 sequence (P00439 1-452): T1 sequence (P00439 1-452)
The conditions noted are these: 100 μM; cited from earlier work.

In the case of `Nc1c(-c2ccc3ccccc3n2)c2ccc([N+](=O)[O-])cc2c(=O)n1Cc1ccccc1` [compound III, 3-amino-2-benzyl-7-nitro-4-(2-quinolyl)-1,2-dihydroisoquinolin-1-one], the “PAH residual activity (% of WT-PAH)” value at WT-PAH [1] was determined as 19%. Moreover, the “increase in WT-PAH activity after refolding relative to ligand-free apo-PAH” value on WT-PAH [2] was “about 5 fold”. For the same molecule, at PAH [3], the “enhancement in PAH activity in WT mouse liver” value was 2 fold. For the same molecule, the “shift of denaturation temperature relative to ligand-free enzyme” value on PAH [4] is “greater than 14 °C”.

Turning to `Cc1ccnc(-n2c(=S)[nH]c3sc(C)c(C)c3c2=O)c1` [compound IV, 5,6-dimethyl-3-(4-methyl-2-pyridinyl)-2-thioxo-2,3-dihydrothieno[2,3-d] pyrimidin-4(1H)-one], at WT-PAH [1], the “PAH residual activity (% of WT-PAH)” value is 9%. For the same molecule, the “increase in WT-PAH activity after refolding relative to ligand-free apo-PAH” value on WT-PAH [2] is ~1.5 fold. For the same molecule, at PAH [3], the “enhancement in PAH activity in WT mouse liver” value was 2 fold. For the same molecule, the “shift of denaturation temperature relative to ligand-free enzyme” value at PAH [4] is > 7 °C.
